Laboratory results reported in patent publication US20180116993A1, “MODULATORS OF FARNESOID X RECEPTOR AND METHODS FOR THE USE THEREOF” (XIAMEN UNIVERSITY, priority 2015, published 2018).
Like-named read-outs stand apart in the source and are kept apart here. Marks after values point to notes of the source that are not given here.

How the values were obtained:
[1] = system: human hepatoma HepG2 cells; assay: MTT cell viability assay, HepG2; type: cell-based; settings: 48 h, read-out: Cell viability as a percentage of the cells treated with DMSO, HepG2
From the text: (§1) The MTT assay is a colorimetric assay for assessing cell metabolic activity. It is widely used in high-throughput screening of antitumor drugs due to its high sensitivity and economical features. In this example, MTT was used to detect the inhibitory effects of compounds on various cancer cell lines. Cancer cells including human colorectal adenocarcinoma HCT15 cells, RA-resistant human colon cancer HCT116 cells, human cervical carcinoma Hela cells, human hepatoma HepG2 cells and human breast cancer MCF7 cells were cultured in DMEM medium containing 10% fetal bovine serum. 20 uM or 40 uM of compounds were administered to treat cells, cell viability is detected by MTT assay and expressed as a percentage of the cells treated with DMSO (Table 4).

[2] = system: inflammatory cytokines in tissues of db/db mice; assay: Inflammatory cytokine mRNA levels in tissues of high-fat diet fed db/db mice (RT-PCR); type: in vivo, mouse; settings: 5 mg/kg
From the text: In this example, we detected the levels of various inflammatory cytokines including iNOS, IFNγ, TGFβ, TNFα, COX2, IL-1β, IL-6, SAA1, MIP-1α and CD36 in liver, kidney, white adipose tissue (WAT) in various mice models, including wild type mice treated with APAP in example 4, high-fat diet fed diabetic and obesity db/db and KK-Ay mice in example 5, high-fat diet fed wild-type mice in Example 5, as well as in primary hepatocytes with LPS induced inflammation, using RT-PCR.

full-length FXR = biological target: T1, full-length FXR (Homo sapiens, UniProt Q96RI1); assay: Cell-based FXR transactivation, EcRE luciferase reporter in COS-7 cells; settings: Table 2; for Cell-based FXR transactivation Fold changes by 5 μM compound: positive: induction, minus: repression; for EC50: EcRE luciferase reporter
T1 construct: The cells were co-transfected with plasmids encoding full-length FXR and the cognate luciferase reporter EcRE-Luc; expressed in transfected cells; host or cells: COS-7
T1 sequence (Q96RI1 1-486): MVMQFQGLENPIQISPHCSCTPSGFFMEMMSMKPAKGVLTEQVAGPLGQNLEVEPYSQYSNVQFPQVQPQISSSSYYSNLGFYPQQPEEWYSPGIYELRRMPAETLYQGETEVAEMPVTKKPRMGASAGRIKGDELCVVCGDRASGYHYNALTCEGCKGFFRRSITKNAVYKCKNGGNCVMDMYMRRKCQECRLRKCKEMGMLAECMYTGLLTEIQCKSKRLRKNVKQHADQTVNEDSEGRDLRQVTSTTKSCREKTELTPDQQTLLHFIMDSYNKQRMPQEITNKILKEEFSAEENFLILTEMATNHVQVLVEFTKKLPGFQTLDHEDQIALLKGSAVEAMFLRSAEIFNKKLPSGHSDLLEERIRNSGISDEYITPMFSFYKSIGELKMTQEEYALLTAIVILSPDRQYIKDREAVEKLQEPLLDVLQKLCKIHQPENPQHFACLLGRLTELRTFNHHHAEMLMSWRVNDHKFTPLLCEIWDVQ
Experimental: COS-7 cells were cotransfected with plasmids encoding full length FXR.
For transient transfection assay, COS-7 cells were maintained in DMEM containing 10% fetal bovine serum and were transiently transfected using Lipofectamine 2000 (Invitrogen). Before 24 h of transfection, 24-well plates were plated. The cells were co-transfected with plasmids encoding full-length FXR and the cognate luciferase reporter EcRE-Luc. Ligands were added 5 hours after transfection. Cells were harvested 24 hours later for the luciferase assays according to the manufacturer's instructions (Dual-Luciferase® Reporter Assay System, Promega). Luciferase activities were normalized to renilla activity co-transfected as an internal control.

[3] = system: human colorectal adenocarcinoma HCT15 cells; assay: MTT cell viability assay, HCT15; type: cell-based; settings: 48 h, read-out: Cell viability as a percentage of the cells treated with DMSO, HCT15; for viability at 20 µM: HCT-15, 20 uM; for viability at 40 µM: HCT-15, 40 uM
From the text: as §1

[4] = system: human breast cancer MCF7 cells; assay: MTT cell viability assay, MCF-7; type: cell-based; settings: 48 h, read-out: Cell viability as a percentage of the cells treated with DMSO, MCF-7
From the text: as §1

[5] = system: RA-resistant human colon cancer HCT116 cells; assay: MTT cell viability assay, HCT116; type: cell-based; settings: 48 h, read-out: Cell viability as a percentage of the cells treated with DMSO, HCT116; for viability at 20 µM: HCT-116, 20 uM; for viability at 40 µM: HCT-116, 40 uM
From the text: as §1

[6] = system: human cervical carcinoma Hela cells; assay: MTT cell viability assay, Hela; type: cell-based; settings: 48 h, read-out: Cell viability as a percentage of the cells treated with DMSO, Hela
From the text: as §1

[7] = biological target: T2, FXR ligand binding domain (LBD) (Homo sapiens, UniProt Q96RI1); assay: AlphaScreen assay: FXR LBD recruitment of coregulator peptide motifs (SRC2-3, SRC1-2); type: biochemical; settings: Table 2
T2 construct: made in house
T2 sequence (Q96RI1 262-486 limits assumed): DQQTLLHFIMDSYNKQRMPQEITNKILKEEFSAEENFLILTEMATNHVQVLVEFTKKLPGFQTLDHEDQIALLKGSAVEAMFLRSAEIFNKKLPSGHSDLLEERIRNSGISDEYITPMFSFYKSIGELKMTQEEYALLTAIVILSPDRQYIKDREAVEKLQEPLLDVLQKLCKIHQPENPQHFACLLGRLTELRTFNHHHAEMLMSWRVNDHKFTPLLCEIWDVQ
Experimental: In search of novel ligands for FXR, we used FXR ligand binding domain (LBD) as a bait to screen chemical libraries based on AlphaScreen biochemical assay, which determines the efficacy of small molecules in influencing binding affinity of FXR with coregulator peptides (see e.g., Jin et al., (2013) Nature communications 4, 1937).
The binding of the cofactor peptide motifs to FXR ligand binding domain (LBD) in response to ligands was determined by AlphaScreen assays using a hexahistidine detection kit from Perkins-Elmer. The FXR LBD protein was purified as described previously (see e.g., Jin et al., (2013) Nature communications 4, 1937). The experiments were conducted with approximately 20-40 nM receptor LBD and 20 nM biotinylated cofactor peptides in the presence of 5 μg/ml donor and acceptor beads in a buffer containing 50 mM MOPS, 50 mM NaF, 0.05 mM CHAPS, and 0.1 mg/ml bovine serum albumin, all adjusted to a pH of 7.4.

db/db mice [8] = assay: Serum/blood metabolic parameters in high-fat diet fed db/db mice; type: in vivo, mouse; settings: 10 mg/kg, treat for 10 days, vehicle 527 ± 63
From the text: KK-Ay mice (KK/Upj-Ay/J) are animal models with moderate obese and diabetes with insulin resistance. KK-Ay mice develop hyperglycemia, hyperinsulinemia, glucose intolerance and obesity as well as fat accumulation in liver by eight weeks of age. Pancreatic islets are hypertrophied and the β-cells are degranulated. db/db mice (BKS.Cg-Dockr+/+ Lepr^db/Jnju) are animal models of type II diabetes. They have the phenotype of insulin resistance. These model mice were used to detect the functions of our compounds on metabolic diseases.
8-10 weeks age mice were maintained as example 4, and fed with high-fat diet (Research Diets, D12492). Mice were i.p. injected with compounds once daily for 7, 10, 11 or 14 days as indicated in each table. After the last compounds injection, mice were fasted for 6 hours with free access to water, and then sacrificed. Part of each liver was fixed in 4% paraformaldehyde for H&E staining, and other liver tissues were stored in liquid nitrogen for enzyme activity measurement and gene expression analysis by RT-PCR. The serums were collected to measure metabolic parameters, including serum glucose, insulin, cholesterol, free fatty acid (FFA) and triglyceride levels. Serum glucose was analyzed using glucose oxidase method (Applygen, Beijing, China). The blood glucose in Table 11 was measured with Berenger blood glucose test strips (B/BRAUN, German) from blood by cutting mice tail after the 6th injection and following fast for 16 hours. Serum cholesterol and FFA were analyzed using Cholesterol Assay Kit and FFA Assay Kit (Bioassay Systems, USA; Nanjing Jiancheng Bioengineering Institute, China; FFA ELISA, R&D, USA), respectively. Serum triglyceride was analyzed using Triglyceride Assay Kit (Bioassay Systems, USA; WAKO Chemicals Inc., Japan; Applygen, Beijing, China). Liver triglyceride was analyzed using Tissue triglyceride assay kit (Applygen, Beijing, China). Serum insulin levels were measured by the Ultra Sensitive Mouse Insulin ELISA Kit (Crystal Chem. Inc., USA). RNA was isolated using Tissue RNA kit (Omega Bio-Tek, GA). The first strand cDNA were obtained by TAKARA reverse transcription kit. Real-time quantitative PCR were performed on a CFX96™ Real-Time PCR Detection System (Bio-Rad) using SYBR Premix Ex Taq™ (TAKARA). Relative mRNA expression levels were normalized to actin levels. […]

db/db mice [9] = assay: Hepatic triglyceride, liver histology, serum ALT and ALP in high-fat diet fed db/db mice; type: in vivo, mouse; settings: 10 mg/kg for 10 days
Experimental: Liver tissues fixed in 4% paraformaldehyde in example 5 were performed for H&E staining by standard procedures. Liver tissues fixed in 4% paraformaldehyde were embedded in optimum cutting temperature compound (OCT), and cryosectioned. Frozen liver sections were stained with 0.3% oil red O according to standard procedures.
The triglyceride levels in liver tissues from mice treated with compounds were analyzed using Tissue triglyceride assay kit (Applygen, Beijing, China).
Alkaline Phosphatase (ALP) is a marker of cholestasis. Cholestasis can be suspected when there is an elevation of ALP enzymes. In fact, greater than 90% of patients with bile stasis will have an elevated alkaline phosphatase. […] The aminotransferase is used to evaluate the presence of hepatitis and may be elevated in cholestasis or with common bile duct obstruction. In this example, 8-10 week age db/db mice were fed with high-fat diet and treated with 10 mg/kg of compounds once daily for 10 days as in Example 5. The activities of serum ALP and ALT were analyzed using ALP kit and ALT kit, respectively (Nanjing Jiancheng Engineering Institute, China).

[10] = SRC1-2 peptide, read-out: EC50 (μM) of FXR binding by AlphaScreen assay recruit SRC1-2
[11] = SRC2-3 peptide, read-out: EC50 (μM) of FXR binding by AlphaScreen assay recruit SRC2-3

| Compound | Cell-based FXR transactivation Fold changes by 5 μM compound (full-length FXR) | EC50 (full-length FXR) [µM] | EC50 [7, 10] [µM] | EC50 [7, 11] [µM] | viability at 20 µM [1] [%] | viability at 40 µM [1] [%] | mRNA level of iNOS (fold), Liver tissue ([2]; vehicle 1.06 ± 0.14) | mRNA level of iNOS (fold), Colon tissue ([2]; vehicle 1.12 ± 0.23) | viability at 20 µM [3] [%] | viability at 40 µM [3] [%] | viability at 20 µM [4] [%] | viability at 40 µM [4] [%] | viability at 20 µM [5] [%] | viability at 40 µM [5] [%] | viability at 20 µM [6] [%] | viability at 40 µM [6] [%] | Serum Glucose (mg/dl) (db/db mice [8]) | Hepatic triglyceride (mM/g) (db/db mice [9]; vehicle 148 ± 14) | Serum ALT (U/L) (db/db mice [9]; vehicle 377 ± 48, Table 15) |
| --- | --- | --- | --- | --- | --- | --- | --- | --- | --- | --- | --- | --- | --- | --- | --- | --- | --- | --- | --- |
| Cc1cc(C(=O)OC2CC3CCC2(C)C3(C)C)ccc1[N+](=O)[O-] (centres unmarked) [XD-15, 1,7,7-trimethyl-bicyclo[2.2.1]-heptan-2-yl 3-methyl-4-nitro-benzoate] | 3 | 1 to 10 |  |  | 79 | 72 ± 3 | 0.47 ± 0.21^a fold | 0.41 ± 0.16^a fold | 100 ± 2 | 62 ± 3 | 81 ± 4 | 70 | 59 ± 3 | 40 ± 3 | 89 ± 6 | 70 ± 3 |  |  |  |
| O=C(OC1CCCCCCC1)c1ccc([N+](=O)[O-])cc1 [XD-24, cyclooctyl 4-nitrobenzoate] | 1.2 | < 1 |  |  |  |  |  |  |  |  |  |  |  |  |  |  | 307 ± 39^a mg/dl |  |  |

Second part, led by results:

| Cell-based FXR transactivation Fold changes by 5 μM compound (full-length FXR) | EC50 (full-length FXR) [µM] | EC50 [7, 10] [µM] | EC50 [7, 11] [µM] | Compound | viability at 20 µM [1] [%] | viability at 40 µM [1] [%] | mRNA level of iNOS (fold), Liver tissue ([2]; vehicle 1.06 ± 0.14) | mRNA level of iNOS (fold), Colon tissue ([2]; vehicle 1.12 ± 0.23) | viability at 20 µM [3] [%] | viability at 40 µM [3] [%] | viability at 20 µM [4] [%] | viability at 40 µM [4] [%] | viability at 20 µM [5] [%] | viability at 40 µM [5] [%] | viability at 20 µM [6] [%] | viability at 40 µM [6] [%] | Serum Glucose (mg/dl) (db/db mice [8]) | Hepatic triglyceride (mM/g) (db/db mice [9]; vehicle 148 ± 14) | Serum ALT (U/L) (db/db mice [9]; vehicle 377 ± 48, Table 15) |
| --- | --- | --- | --- | --- | --- | --- | --- | --- | --- | --- | --- | --- | --- | --- | --- | --- | --- | --- | --- |
| −5 | < 1 | < 1 | < 1 | Cc1cc(C(=O)OC2CCC3CCCCC3C2)ccc1N (centres unmarked) [XD-31, decahydro-naphthalen-2-yl 4-amino-3-methylbenzoate] | 100 ± 1 | 90 ± 1 |  |  | 100 ± 1 | 41 ± 1 | 100 ± 1 | 100 ± 1 | 63 ± 1 | 59 ± 1 | 74 | 42 ± 1 | 326 ± 51^a mg/dl |  |  |
| 2 | 1 to 10 | < 1 | < 1 | O=C(OC1CCC2CCCCC2C1)c1ccc(F)cc1 (centres unmarked) [XD-33, decahydro-naphthalen-2-yl 4-fluorobenzoate] | 100 ± 2 | 95 ± 2 |  |  | 100 ± 2 | 100 ± 2 | 100 ± 2 | 95 ± 2 | 97 ± 2 | 95 ± 2 | 97 ± 2 | 98 ± 2 | 400 ± 23^a mg/dl |  |  |
| 1.5 | < 1 |  |  | O=C(OC1CC2CCC1C2)c1ccc([N+](=O)[O-])cc1 (centres unmarked) [XD-25, bicyclo[2.2.1]-heptan-2-yl 4-nitrobenzoate] | 100 ± 5 | 90 ± 4 |  |  | 100 ± 4 | 89 ± 4 | 100 ± 2 | 97 ± 2 | 79 ± 2 | 66 ± 5 | 100 ± 2 | 100 ± 2 | 389 ± 47^a mg/dl | 116 ± 5 ^c mM/g | 124 ± 21 ^a U/L |
